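Cells were grown in 96-well plates and exposed to each compound for 48 hours at five concentrations; endpoints were interpolated linearly between bracketing concentrations, or set to the highest concentration if not reached. GI50 is the concentration that inhibits growth by half.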 Active and inactive are the calls of the source. Cut-off read from the data, not from the text of the source: active = GI50 up to about 1.1 µM and inactive = higher.

We go through 4 molecules from ChEMBL document CHEMBL1201862, “PubChem BioAssay data set” (2004).

Some test systems named below: KM12; OVCAR-4; MCF7; SW-620; NCI-H23; SK-MEL-5; SK-MEL-2; HCC 2998; ACHN; NCI-H226; MDA-N; MDA-MB-231; DU-145; SK-MEL-28; SF-295; UACC-62; HL-60; SNB-75; SR.
Holding throughout (experiment): NCI-60 cell line screen, 48 h

For `COC(=O)CC[N+]1=CCC(c2ccccc2)(c2ccccc2)O1`, the GI50 in the test on KM12, in the test on OVCAR-4, in the test with MCF7, with SW-620, in the test on NCI-H23 and with SK-MEL-5 was > 100 µM (inactive) throughout. Also, the GI50 was > 100 µM (inactive) in the test on SK-MEL-2; > 100 µM (inactive) in the test with HCC 2998; > 100 µM (inactive) with ACHN; > 100 µM (inactive) in the test with NCI-H226; 18.5 µM (inactive) in the test on MDA-N; > 100 µM (inactive) in the test on MDA-MB-231. Besides, the GI50 in the test with DU-145, in the test on SK-MEL-28, in the test with SF-295 and in the test with UACC-62 was > 100 µM (inactive) in each case.

As to `CN(Cc1cnc2nc(N)nc(N)c2n1)c1ccc(C(=O)NC(CCC(=O)O)C(=O)O)cc1C(F)(F)F` (stereo unspecified), the GI50 with KM12 is < 0.01 µM (active); with OVCAR-4, > 100 µM (inactive); in the test on MCF7 it was < 0.01 µM (active); with SW-620, < 0.01 µM (active); in the test on NCI-H23, < 0.01 µM (active); in the test on SK-MEL-5, < 0.01 µM (active). Also, the GI50 in the test with SK-MEL-2 was > 100 µM (inactive); in the test with HL-60, < 0.01 µM (active); with HCC 2998, < 0.01 µM (active); with SNB-75 it was > 100 µM (inactive); in the test with ACHN, < 0.01 µM (active); in the test with MDA-MB-231, > 23.1 µM (inactive). The GI50 was < 0.01 µM (active) with SR; < 0.01 µM (active) in the test on DU-145; > 100 µM (inactive) with SK-MEL-28; < 0.01 µM (active) in the test on SF-295; < 0.01 µM (active) in the test on UACC-62.

Consider `COC(=O)CCCc1c(-c2[nH]c3ccccc3c2CCCC(=O)OC)[nH]c2ccccc12`, for which the GI50 in the test on KM12, with SW-620, in the test on NCI-H23, in the test on SK-MEL-5, in the test on SK-MEL-2 and in the test on HL-60 was > 100 µM (inactive) in each case. For the same molecule, the GI50 with SNB-75 is 13.6 µM (inactive); with ACHN, > 100 µM (inactive); in the test on NCI-H226, > 100 µM (inactive); in the test on MDA-N, > 100 µM (inactive); in the test with MDA-MB-231, > 100 µM (inactive); in the test with DU-145 it was > 100 µM (inactive). For the same molecule, the GI50 in the test with SK-MEL-28, in the test on SF-295 and with UACC-62 was > 100 µM (inactive) each time.

With `CC1OC(OC2C(OC(=O)[C@]34CCC(C)(C)C[C@H]3C3=CC[C@@H]5[C@@]6(C)CC[C@H](OC7OC(CO)C(O)C(O)C7OC7OC(CO)C(O)C(O)C7O)C(C)(C)[C@@H]6CC[C@@]5(C)[C@]3(C)CC4)OCC(O)C2O)C(O)C(O)C1OC1OCC(O)C(O)C1O` (stereo partly specified), the GI50 is 7.73 µM (inactive) in the test with KM12; 9.59 µM (inactive) with OVCAR-4; 12.6 µM (inactive) in the test with MCF7; 16.1 µM (inactive) in the test on SW-620; 9.35 µM (inactive) in the test on NCI-H23; 14.3 µM (inactive) in the test with SK-MEL-5. Moreover, the GI50 with SK-MEL-2 is 6.32 µM (inactive); in the test with HL-60 it was 6.11 µM (inactive); in the test on HCC 2998 it was 1.98 µM (inactive); with SNB-75, 16.7 µM (inactive); with ACHN, 11.9 µM (inactive); in the test on NCI-H226, 10.8 µM (inactive). For the same molecule, the GI50 is 7.83 µM (inactive) with MDA-MB-231; 7.93 µM (inactive) in the test with SR; 11.9 µM (inactive) in the test on DU-145; 2.65 µM (inactive) in the test with SK-MEL-28; 11.2 µM (inactive) in the test with SF-295; 16.9 µM (inactive) in the test with UACC-62.
